Data on 53 molecules can be found in US20100022521A1, “COMPOUNDS” (Hansa Metallwerke AG, priority 2005, published 2010).

Some results are limits rather than exact numbers.

Test [1] concerns the target mGluR5 (UniProt P31424). As to the kind of experiment: MGluR5 receptor binding test ([3H]-M-MPEP displacement). Also on record: species or system rat. Particulars: radioligand [3H]-M-MPEP (2 nM); species not given; read-out: mGlu5 Ki. How it is done: MGluR5 Receptor Binding Tests
Rat cerebro-cortical membrane preparation was used to determine the binding characteristics of reference compounds and novel compounds to the rat mGluR5. The A18 cell line expressing hmGluR5a (purchased from Euroscreen) was used to determine binding characteristics of the chemical compounds to the human mGluR5a receptor. As radioligand [3H]-M-MPEP (2 nM) was used. The nonspecific binding was determined in the presence of 10 μM M-MPEP.

Test [2] concerns the target T1, rat mGluR1 (Rattus norvegicus, UniProt P23385).
T1 construct: rat cerebellar membrane preparation was used; from tissue; host or cells: rat cerebellum (membrane preparation)
As to the kind of experiment: MGluR1 receptor binding test ([3H]R214127 displacement). Particulars: rat cerebellar membrane; radioligand [3H]R214127 (3 nM); read-out: mGlu1 Ki. How it is done: MGluR1 Receptor Binding Test
MGluR1 receptor binding testes were performed according to modified method of Lavreysen et al. (Mol. Pharm., 2003, 63, 1082). Based on the high homology between the human and rat mGluR1 receptors, rat cerebellar membrane preparation was used to determine the binding characteristics of reference compounds and novel compounds to the rat mGluR1. As radioligand [3H]R214127 (3 nM) was used and the nonspecific binding was determined in the presence of 1 μM of R214127.
IC-50 values were determined from displacement curves by nonlinear regression analysis and were converted by equation method of Cheng and Prusoff (Biochem. Pharmacol., 1973, 22, 3099) to Ki values.

T1 sequence (P23385 19-1199): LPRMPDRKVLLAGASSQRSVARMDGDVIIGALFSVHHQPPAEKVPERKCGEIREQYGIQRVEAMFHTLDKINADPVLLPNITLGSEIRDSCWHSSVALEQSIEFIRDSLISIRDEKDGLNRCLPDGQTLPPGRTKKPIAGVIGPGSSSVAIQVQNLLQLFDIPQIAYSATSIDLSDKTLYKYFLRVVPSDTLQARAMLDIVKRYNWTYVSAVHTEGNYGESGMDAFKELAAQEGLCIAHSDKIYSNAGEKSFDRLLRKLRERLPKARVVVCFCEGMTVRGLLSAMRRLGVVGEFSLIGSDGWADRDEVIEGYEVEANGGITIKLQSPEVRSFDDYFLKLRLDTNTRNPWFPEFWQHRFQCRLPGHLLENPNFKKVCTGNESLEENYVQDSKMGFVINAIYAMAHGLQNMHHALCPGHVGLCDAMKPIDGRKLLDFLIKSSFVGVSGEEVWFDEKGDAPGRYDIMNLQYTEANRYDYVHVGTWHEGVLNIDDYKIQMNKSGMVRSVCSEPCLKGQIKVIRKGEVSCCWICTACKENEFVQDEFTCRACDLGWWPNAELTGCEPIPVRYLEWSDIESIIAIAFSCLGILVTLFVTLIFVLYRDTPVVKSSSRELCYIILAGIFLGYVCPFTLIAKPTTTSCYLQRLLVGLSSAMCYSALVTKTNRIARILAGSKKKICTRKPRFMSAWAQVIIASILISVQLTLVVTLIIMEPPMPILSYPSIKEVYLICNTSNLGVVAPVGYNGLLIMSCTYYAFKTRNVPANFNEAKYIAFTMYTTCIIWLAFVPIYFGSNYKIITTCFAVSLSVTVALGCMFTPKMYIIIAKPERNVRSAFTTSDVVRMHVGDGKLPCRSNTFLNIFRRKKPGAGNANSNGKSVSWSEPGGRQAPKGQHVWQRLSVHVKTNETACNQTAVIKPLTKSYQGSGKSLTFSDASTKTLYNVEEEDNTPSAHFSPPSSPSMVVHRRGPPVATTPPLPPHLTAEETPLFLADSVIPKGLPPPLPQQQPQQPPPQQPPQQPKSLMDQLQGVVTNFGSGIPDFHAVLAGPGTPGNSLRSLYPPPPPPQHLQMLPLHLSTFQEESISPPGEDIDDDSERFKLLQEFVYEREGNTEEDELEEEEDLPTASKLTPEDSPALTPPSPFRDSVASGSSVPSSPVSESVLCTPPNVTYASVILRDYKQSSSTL

Take `O=S(=O)(c1ccc(Cl)cc1)c1sc2ncccc2c1-c1ccc(Cl)cc1` [Compound 1, 2-(4-Chloro-benzenesulfonyl)-3-(4-chloro-phenyl)-thieno[2,3-b]pyridine]: the Ki (in general, a measure of affinity in units of concentration, obtained from inhibition or displacement) in test [1] is less than 500 nM; in test [2] it was more than 1500 nM. `[O-][S+](c1ccc(Cl)cc1)c1sc2ncccc2c1-c1ccc(Cl)cc1` (stereo not drawn) [Compound 2]: the Ki in test [1] and in test [2] was less than 500 nM throughout.

For `O=S(=O)(c1ccc(F)cc1)c1sc2ncccc2c1-c1ccc(Cl)cc1` [Compound 3], the inhibition constant Ki in test [1] was less than 500 nM; in test [2], more than 1500 nM. On to `Cc1ccc(S(=O)(=O)c2sc3ncccc3c2-c2ccc(Cl)cc2)cc1` [Compound 4], for which the inhibition constant Ki in test [1] was less than 500 nM; in test [2], 500 to 1500 nM. `CC(=O)Nc1ccc(S(=O)(=O)c2sc3ncccc3c2-c2ccc(Cl)cc2)cc1` [Compound 5]: the Ki in test [1] and in test [2] was more than 1500 nM each time. In the case of `N#Cc1ccc(S(=O)(=O)c2sc3ncccc3c2-c2ccc(Cl)cc2)cc1` [Compound 7], the Ki in test [1] was less than 500 nM; in test [2], more than 1500 nM. As to `O=S(=O)(c1ccccc1)c1sc2ncccc2c1-c1ccc(Cl)cc1` [Compound 8], the Ki was less than 500 nM in test [1] and more than 1500 nM in test [2]. Turning to `N#Cc1cccc(S(=O)(=O)c2sc3ncccc3c2-c2ccc(Cl)cc2)c1` [Compound 9], the Ki in test [1] and in test [2] was less than 500 nM throughout. For `O=S(=O)(c1cccnc1)c1sc2ncccc2c1-c1ccc(Cl)cc1` [Compound 10], the inhibition constant (Ki) is less than 500 nM in test [1] and more than 1500 nM in test [2]. `CCCCS(=O)(=O)c1sc2ncccc2c1-c1ccc(Cl)cc1` [Compound 11]: the Ki in test [1] was 500 to 1500 nM; in test [2], more than 1500 nM. As for `Cc1nc(C)c(S(=O)(=O)c2sc3ncccc3c2-c2ccc(Cl)cc2)s1` [Compound 12], the Ki in test [1] is 500 to 1500 nM; in test [2], more than 1500 nM. Regarding `O=S(=O)(c1cccs1)c1sc2ncccc2c1-c1ccc(Cl)cc1` [Compound 13], the figures for the Ki in test [1] and in test [2] were 500 to 1500 nM and more than 1500 nM, respectively. As to `Cc1noc(C)c1S(=O)(=O)c1sc2ncccc2c1-c1ccc(Cl)cc1` [Compound 14], the inhibition constant Ki in test [1] and in test [2] was more than 1500 nM in each case. With `O=S(=O)(Nc1ccc(Cl)cc1)c1sc2ncccc2c1-c1ccc(Cl)cc1` [Compound 15, 3-(4-Chlorophenyl)-thieno[2,3-b]pyridine-2-sulfonic acid (4-chloro-phenyl)-amide], the Ki in test [1] is 500 to 1500 nM; in test [2] it was more than 1500 nM. Regarding `O=S(=O)(c1sc2ncccc2c1-c1ccc(Cl)cc1)C1CCCCC1` [Compound 16], the inhibition constant (Ki) in test [1] and in test [2] was more than 1500 nM in each case.

In the case of `O=S(=O)(Cc1ccccc1)c1sc2ncccc2c1-c1ccc(Cl)cc1` [Compound 17], the Ki in test [1] was 500 to 1500 nM; in test [2], more than 1500 nM.

As for `O=S(=O)(c1ccc(-c2ccccc2)cc1)c1sc2ncccc2c1-c1ccc(Cl)cc1` [Compound 18], the Ki in test [1] and in test [2] was more than 1500 nM in each case.

Regarding `O=S(=O)(c1cccc(Cl)c1)c1sc2ncccc2c1-c1ccc(Cl)cc1` [Compound 19], the inhibitory constant (Ki) was less than 500 nM in test [1] and more than 1500 nM in test [2].

Consider `O=S(=O)(NCc1ccc(Cl)cc1)c1sc2ncccc2c1-c1ccc(Cl)cc1` [Compound 21, 3-(4-Chlorophenyl)-thieno[2,3-b]pyridine-2-sulfonic acid 4-chloro-benzylamide], for which the inhibitory constant (Ki) in test [1] and in test [2] was more than 1500 nM throughout. With `O=S(=O)(c1cccc(C(F)(F)F)c1)c1sc2ncccc2c1-c1ccc(Cl)cc1` [Compound 28], the figures for the Ki in test [1] and in test [2] were less than 500 nM and more than 1500 nM, respectively. As for `O=S(=O)(c1ccc(Cl)cc1Cl)c1sc2ncccc2c1-c1ccc(Cl)cc1` [Compound 33], the Ki in test [1] is 500 to 1500 nM; in test [2], more than 1500 nM. The corresponding values for `Cc1ccc(-c2c(S(=O)(=O)c3ccc(Cl)cc3)sc3ncccc23)cc1` [Compound 35] are less than 500 nM and more than 1500 nM. Turning to `CC1CCN(c2c(S(=O)(=O)c3cccc(C#N)c3)sc3ncccc23)CC1` [Compound 36, 2-(3-Cyano-benzenesulfonyl)-3-(4-methyl-piperidinyl)-thieno[2,3-b]pyridine], the Ki in test [1] and in test [2] was less than 500 nM each time. On to `N#Cc1cccc(S(=O)(=O)c2sc3ncccc3c2-c2cccc(Cl)c2)c1` [Compound 38], for which the Ki in test [1] and in test [2] was less than 500 nM each time. Take `N#Cc1cc(F)cc(S(=O)(=O)c2sc3ncccc3c2-c2ccc(Cl)cc2)c1` [Compound 40]: the figures for the Ki in test [1] and in test [2] were less than 500 nM and 500 to 1500 nM, respectively. Take `COc1ccc(S(=O)(=O)c2sc3ncccc3c2-c2ccc(Cl)cc2)cc1` [Compound 48]: the inhibitory constant (Ki) in test [1] and in test [2] was less than 500 nM in each case. `N#Cc1cccc(S(=O)(=O)c2sc3ncccc3c2-c2cccc(F)c2)c1` [Compound 52]: the inhibition constant Ki in test [1] and in test [2] was less than 500 nM each time. Turning to `Cc1cccc(-c2c(S(=O)(=O)c3cccc(C#N)c3)sc3ncccc23)c1` [Compound 53], the Ki in test [1] is less than 500 nM; in test [2], 500 to 1500 nM. For `Cc1ccc(-c2c(S(=O)(=O)c3cccc(C#N)c3)sc3ncccc23)cc1` [Compound 59], the Ki in test [1] and in test [2] was less than 500 nM each time. For the molecule `COc1cccc(-c2c(S(=O)(=O)c3cccc(C#N)c3)sc3ncccc23)c1` [Compound 67], the Ki in test [1] and in test [2] was less than 500 nM in each case.

In the case of `N#Cc1cccc(S(=O)(=O)c2sc3nc(F)ccc3c2-c2ccc(F)cc2)c1` [Compound 75], the Ki in test [1] was less than 500 nM; in test [2], more than 1500 nM. Turning to `O=S(=O)(c1cccc(F)c1)c1sc2ncccc2c1-c1ccc(F)cc1` [Compound 78], the results for the Ki in test [1] and in test [2] were less than 500 nM and more than 1500 nM, respectively. The corresponding values for `Nc1cnc2sc(S(=O)(=O)c3ccc(Cl)cc3)c(-c3ccc(Cl)cc3)c2c1` [Compound 79, 2-(4-Chloro-benzenesulfonyl)-3-(4-chloro-phenyl)-thieno[2,3-b]pyridin-5-ylamine] are less than 500 nM and less than 500 nM. The matching figures for `O=S(=O)(c1ccc(Cl)c(Cl)c1)c1sc2ncccc2c1-c1ccc(Cl)cc1` [Compound 80]: less than 500 nM and 500 to 1500 nM. The corresponding values for `Cc1ccc(S(=O)(=O)c2sc3ncccc3c2-c2ccc(F)cc2)cc1F` [Compound 82] are less than 500 nM and more than 1500 nM. With `N#Cc1cccc(S(=O)(=O)c2sc3ncccc3c2-c2ccccc2Cl)c1` [Compound 83], the Ki in test [1] and in test [2] was less than 500 nM throughout. `Cc1ccc(S(=O)(=O)c2sc3nc(F)ccc3c2-c2ccc(Cl)cc2)cc1F` [Compound 89]: the figures for the inhibitory constant (Ki) in test [1] and in test [2] were less than 500 nM and more than 1500 nM, respectively. Take `COc1ccc(S(=O)(=O)c2sc3ncccc3c2-c2ccc(F)cc2)cc1F` [Compound 126]: in test [1], the Ki is less than 500 nM. The same measure, in the same setting: as for `COc1ccc(S(=O)(=O)c2sc3ncccc3c2-c2cccc(F)c2)cc1F` [Compound 127], the figure is less than 500 nM; as for `COc1ccc(S(=O)(=O)c2sc3ncccc3c2-c2cccc(Cl)c2)cc1F` [Compound 128], less than 500 nM; as for `O=S(=O)(c1ccc(Cl)cc1)c1sc2ncccc2c1N1CCCC1` [Compound 129], less than 500 nM. For `O=S(=O)(c1ccc(Cl)cc1)c1sc2ncccc2c1-c1ccc(F)cc1F` [Compound 130], the Ki in test [1] was less than 500 nM. For the molecule `Nc1cnc2sc(S(=O)(=O)c3ccc(Cl)cc3)c(-c3ccccc3F)c2c1` [Compound 131], the Ki in test [1] was less than 500 nM. With `N#Cc1cc(F)cc(S(=O)(=O)c2sc3ncccc3c2-c2ccccc2F)c1` [Compound 132], in test [1], the inhibition constant (Ki) is less than 500 nM.

`O=S(=O)(c1ccc(Cl)cc1)c1sc2ncccc2c1-n1cncn1` [Compound 133]: the inhibitory constant (Ki) in test [1] lay within 500 to 1500 nM. Turning to `O=S(=O)(c1ccc(Cl)cc1)c1sc2ncccc2c1N1CCC(F)(F)CC1` [Compound 134], the inhibitory constant (Ki) in test [1] is less than 500 nM.

`CN(C)c1ccnc2sc(S(=O)(=O)c3ccc(Cl)cc3)c(-c3ccc(Cl)cc3)c12` [Compound 135, 2-(4-Chloro-benzenesulfonyl)-3-(4-chloro-phenyl)-4-dimethylamino-thieno[2,3-b]pyridine]: in test [1], the Ki is 500 to 1500 nM.

Regarding `N#Cc1cc(F)cc(S(=O)(=O)c2sc3ncccc3c2-c2cccc(Cl)c2)c1` [Compound 136], the inhibition constant Ki in test [1] is less than 500 nM. Consider `O=S(=O)(c1ccc(Cl)cc1)c1sc2ncc(F)cc2c1-c1cccc(F)c1` [Compound 137, 2-(4-Chloro-benzenesulfonyl)-3-(3-fluoro-phenyl)-5-fluoro-thieno[2,3-b]pyridine], for which the inhibition constant Ki in test [1] is less than 500 nM. Take `N#Cc1cc(F)cc(S(=O)(=O)c2sc3nc(Cl)ccc3c2-c2cccc(F)c2)c1` [Compound 138]: the inhibitory constant (Ki) in test [1] is less than 500 nM. In the case of `N#Cc1cc(F)cc(S(=O)(=O)c2sc3nc(F)ccc3c2-c2cccc(F)c2)c1` [Compound 139], in test [1], the Ki was less than 500 nM. On the same count and under the same terms, as for `O=S(=O)(c1ccc(Cl)cc1)c1sc2ncccc2c1N1CCC(CO)CC1` [Compound 140], the figure is less than 500 nM; as for `O=S(=O)(c1ccc(Cl)cc1)c1sc2ncccc2c1N1CC[C@@H](F)C1` [Compound 141], less than 500 nM.
